# Measurements from patent US12410164B2, “Heterocyclic compounds and medical use thereof” (FONDAZIONE TELETHON, priority 2018, dated 2025).
# Molecular target: F508del-CFTR (Homo sapiens, UniProt P13569, DEL508-508)
# Assay: HS-YFP kinetic fluorescence (iodide quenching rate) assay in CFBE41o− cells
# Type: cell-based
# Design: expressed in transfected cells; host or cells: CFBE41o- cells with expression of F508del-CFTR and HS-YFP (generated as in Sondo et al. 2011)
# Conditions: for AI (%) additivity index: Table 1, HS-YFP assay; for AI (%) additivity index / AI additivity index: compound at 10 μM plus VX-809, (QRTOT − QRVX)/QRVX; for structure-activity comparison of corrector potency/activity: relative to the analogue; for AI additivity index: Table 2
# Procedure: CFBE41o- cells, with expression of F508del-CFTR and halogen-sensitive fluorescent protein, were generated as previously described (Sondo E, et al. Am J Physiol. 2011, 301, […]-[…]). For the test, the cells were seeded in 96-well microplates using a culture medium consisting of DMEM and Ham's F12 (1:1) supplemented with 10% foetal bovine serum. After 24 hours from seeding, the cells were treated for another 24 hours with the test compounds dissolved in the culture medium at the desired concentrations. As a negative control, the solvent of the compounds (dimethyl sulfoxide, DMSO) dissolved in the medium with the same dilution ratio (final percentage of DMSO:0.1-0.2%) was used. As a positive control, the corrector VX-809 (Selleck Chemicals, […]) was used at a concentration of 1 μM. After treatment, the medium with the compounds was removed and the cells were stimulated with forskolin (Sigma-Aldrich, F6886) 20 μM plus genistein (Sigma-Aldrich, G6649) 50 μM (in 60 μl of PBS saline) to maximally activate the CFTR channels present in the membrane. In a microplate reader (FLUOstar-Omega, BMG) the fluorescence of the cells in each well was read for 14 seconds, with an injection of 165 μl of a iodide-enriched saline (modified PBS where NaCl, 137 mM, has been replaced with the same concentration of NaI). The iodide transport activity in each well was evaluated by subtraction of the background fluorescence (measured in a well without cells), subsequent normalization with respect to the initial fluorescence and finally by interpolation of the fluorescence quenching phase with an exponential function that allows the derivation of the maximum slope (quenching rate, QR). The activity of the synthesized compounds was initially evaluated on the CFBE41o- cell line with expression of the mutated F508del-CFTR protein described above (Sondo E, et al. Am J Physiol. 2011, 301, […]-[…]). For this purpose, a functional assay based on the fluorescent YFP protein sensitive to halides, HS-YFP, was used (Galietta L J, et al. J Biol Chem. 2001, 276, 19723-19728). The fluorescence of the HS-YFP protein is turned off by iodide. Therefore, if exposed to a solution containing iodide, cells with HS-YFP expression show a quenching speed of the fluorescence which depends on the presence and activity of anionic channels. Under control conditions, the mutated CFTR protein presents a serious defect of stability and maturation, so it remains trapped in the endoplasmic reticulum not reaching the cell surface in enough quantity. In the HS-YFP-based assay, this defect results in a low anion transport capacity and therefore in a low quenching rate (QR). Treatment for a prolonged time (e.g. 24 hours) with a corrector determines an improvement in protein maturation with an increase in the number of CFTR channels present in the membrane and therefore an increase in the flux of iodide and QR. In a first phase, the authors screened about 200 heterocyclic molecules with various nitrogenated tricyclic scaffolds. Conditions previously described have been used for screening (Sondo E, et al. Am J Physiol. 2011, 301, […]-[…]) and reported herein in the Materials and Methods section. A threshold equal to the average value plus three times the standard deviation of the QR of wells without compounds (only DMSO in the culture medium) was used as a criterion for the selection of active compounds.
# Chain of F508del-CFTR (P13569 with tags, fused parts or gaps DEL508-508): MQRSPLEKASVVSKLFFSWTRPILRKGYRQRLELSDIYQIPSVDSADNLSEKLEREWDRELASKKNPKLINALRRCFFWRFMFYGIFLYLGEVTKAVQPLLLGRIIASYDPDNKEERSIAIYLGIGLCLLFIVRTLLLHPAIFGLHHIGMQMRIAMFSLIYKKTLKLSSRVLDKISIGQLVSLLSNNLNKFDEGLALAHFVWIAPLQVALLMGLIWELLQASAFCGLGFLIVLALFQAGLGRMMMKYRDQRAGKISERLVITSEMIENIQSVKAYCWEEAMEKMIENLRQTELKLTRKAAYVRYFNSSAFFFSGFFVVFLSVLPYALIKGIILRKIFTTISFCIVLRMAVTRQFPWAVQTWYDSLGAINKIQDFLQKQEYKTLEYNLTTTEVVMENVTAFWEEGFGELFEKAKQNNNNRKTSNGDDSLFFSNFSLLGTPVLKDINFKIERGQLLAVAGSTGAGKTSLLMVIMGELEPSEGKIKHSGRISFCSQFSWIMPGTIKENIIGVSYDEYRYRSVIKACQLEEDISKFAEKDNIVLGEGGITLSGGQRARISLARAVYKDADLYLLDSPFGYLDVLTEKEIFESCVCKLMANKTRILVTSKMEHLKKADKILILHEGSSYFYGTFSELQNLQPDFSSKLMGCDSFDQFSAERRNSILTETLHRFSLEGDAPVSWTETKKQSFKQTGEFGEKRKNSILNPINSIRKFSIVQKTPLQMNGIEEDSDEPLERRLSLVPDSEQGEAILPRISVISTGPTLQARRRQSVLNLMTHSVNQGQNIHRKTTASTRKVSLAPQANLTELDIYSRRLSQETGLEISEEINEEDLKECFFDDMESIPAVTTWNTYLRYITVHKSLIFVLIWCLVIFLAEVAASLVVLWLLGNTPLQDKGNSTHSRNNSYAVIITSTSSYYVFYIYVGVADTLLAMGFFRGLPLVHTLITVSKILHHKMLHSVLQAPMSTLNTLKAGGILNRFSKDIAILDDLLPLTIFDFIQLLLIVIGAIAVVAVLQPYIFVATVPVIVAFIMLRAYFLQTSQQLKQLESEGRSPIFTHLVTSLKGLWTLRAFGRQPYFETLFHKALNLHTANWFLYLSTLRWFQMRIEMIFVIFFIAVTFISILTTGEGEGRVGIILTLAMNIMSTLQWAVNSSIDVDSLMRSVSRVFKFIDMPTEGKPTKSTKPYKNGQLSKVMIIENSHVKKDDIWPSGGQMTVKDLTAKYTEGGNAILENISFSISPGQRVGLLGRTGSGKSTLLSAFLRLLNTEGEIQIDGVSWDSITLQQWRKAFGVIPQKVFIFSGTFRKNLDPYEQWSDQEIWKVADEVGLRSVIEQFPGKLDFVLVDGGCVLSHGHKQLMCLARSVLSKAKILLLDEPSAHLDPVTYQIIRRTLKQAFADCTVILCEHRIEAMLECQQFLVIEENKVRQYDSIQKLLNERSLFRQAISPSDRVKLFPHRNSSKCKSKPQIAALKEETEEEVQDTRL
SMILES,AI (%) additivity index [%],structure-activity comparison of corrector potency/activity,AI additivity index [%]
"CCOC(=O)c1c(Br)c2c(n1Cc1ccc(C)cc1)-c1[nH]c(=O)c(S(=O)(=O)c3ccc(C)cc3)cc1CC2 [PP035, Ethyl 3-bromo-7-(4-methylbenzene-1-sulfonyl)-1-[(4-methylphenyl)methyl]-8-oxo-4,5,8,9-tetrahydro-1H-pyrrolo[3,2-h]quinoline-2-carboxylate]",56,,
"CCOC(=O)c1c(Br)c2c(n1Cc1ccc(C)cc1)-c1[nH]c(=O)c(S(C)(=O)=O)cc1CC2 [PP036, Ethyl 3-bromo-7-(metansulfonyl)-1-[(4-methylphenyl)methyl]-8-oxo-4,5,8,9-tetrahydro-1H-pyrrolo[3,2-h]quinoline-2-carboxylate]",23,,
"CCOC(=O)c1c(Br)c2c(n1Cc1ccc(C)c(C)c1)-c1[nH]c(=O)c(S(=O)(=O)c3ccccc3)cc1CC2 [PP037, Ethyl 7-(benzenesulfonyl)-3-bromo-1-[(3,4-dimethylphenyl)methyl]-8-oxo-4,5,8,9-tetrahydro-1H-pyrrolo[3,2-h]quinoline-2-carboxylate]",335,increase in potency compared to PP008,
"CCOC(=O)c1cc2c(n1Cc1ccc(C)cc1)-c1[nH]c(=O)c(S(=O)(=O)c3ccccc3)cc1CCC2 [PP048, Ethyl 8-(benzenesulfonyl)-1-[(4-methylphenyl)methyl]-9-oxo-1,4,5,6,9,10-hexahydropyrrolo[3′,2′:6,7]cyclohepta[1,2-b]pyridine-2-carboxylate]",,,22
"CCOC(=O)c1c(Br)c2c(n1Cc1ccc(C)cc1)-c1[nH]c(=O)c(S(=O)(=O)c3ccccc3)cc1CCC2 [PP056, Ethyl 8-(benzenesulfonyl)-3-bromo-1-[(4-methylphenyl)methyl]-9-oxo-1,4,5,6,9,10-hexahydropyrrolo[3′,2′:6,7]cyclohepta[1,2-b]pyridine-2-carboxylate]",,more potent than the non-halogenated analogues,60
"CCOC(=O)c1cc2c(n1Cc1ccc(Br)cc1)-c1[nH]c(=O)c(S(=O)(=O)c3ccccc3)cc1CC2 [PP060, Ethyl 7-(benzenesulfonyl)-1-[(4-bromophenyl)methyl]-8-oxo-4,5,8,9-tetrahydro-1H-pyrrolo[3,2-h]quinoline-2-carboxylate]",148,,
"CCOC(=O)c1cc2c(n1Cc1ccc(I)cc1)-c1[nH]c(=O)c(S(=O)(=O)c3ccccc3)cc1CC2 [PP062, Ethyl 7-(benzenesulfonyl)-1-[(4-iodophenyl)methyl]-8-oxo-4,5,8,9-tetrahydro-1H-pyrrolo[3,2-h]quinoline-2-carboxylate]",95,,
"CCOC(=O)c1c(Br)c2c(n1Cc1ccc(I)cc1)-c1[nH]c(=O)c(S(=O)(=O)c3ccccc3)cc1CC2 [PP063, Ethyl 7-(benzenesulfonyl)-3-bromo-1-[(4-iodophenyl)methyl]-8-oxo-4,5,8,9-tetrahydro-1H-pyrrolo[3,2-h]quinoline-2-carboxylate]",146,,
"CCOC(=O)c1cc2c(n1CC1CC1)-c1[nH]c(=O)c(S(=O)(=O)c3ccccc3)cc1CC2 [PP064, Ethyl 7-(benzenesulfonyl)-1-(cyclopropylmethyl)-8-oxo-4,5,8,9-tetrahydro-1H-pyrrolo[3,2-h]quinoline-2-carboxylate]",235,,
"CCOC(=O)c1c(Br)c2c(n1CC1CC1)-c1[nH]c(=O)c(S(=O)(=O)c3ccccc3)cc1CC2 [PP065, Ethyl 7-(benzenesulfonyl)-3-bromo-1-(cyclopropylmethyl)-8-oxo-4,5,8,9-tetrahydro-1H-pyrrolo[3,2-h]quinoline-2-carboxylate]",284,,
"CCOC(=O)c1cc2c(n1Cc1ccc(C)nc1)-c1[nH]c(=O)c(S(=O)(=O)c3ccccc3)cc1CC2 [PP066, Ethyl 7-(benzenesulfonyl)-1-[(6-methylpyridin-3-yl)methyl]-8-oxo-4,5,8,9-tetrahydro-1H-pyrrolo[3,2-h]quinoline-2-carboxylate]",62,,
